From BindingDB's records for patent US20240208932 (Xizang Haisco Pharmaceutical, 2024) come the findings set out here.

Test in all cases: CYP450 Enzyme Inhibition Assay
One assay addresses Cytochrome P450 2C19 (Homo sapiens, UniProt P33261). As for the experimental part: (§1) The purpose of this study was to evaluate the effect of the test compound on the activity of five isoenzymes (CYP1A2, CYP2C9, CYP2C19, CYP2D6 and CYP3A4) of human liver microsomal cytochrome P450 (CYP) by using an in vitro testing system. The specific probe substrates of CYP450 isoenzymes were incubated with human liver microsomes and test compounds of different concentrations, and reduced nicotinamide adenine dinucleotide phosphate (NADPH) was added to initiate the reaction. After the completion of the reaction, the sample was treated and liquid chromatography-tandem mass spectrometry (LC-MS/MS) was used to quantitatively detect metabolites produced by specific substrates, changes in CYP enzyme activity were determined, and IC50 value was calculated to evaluate the inhibitory potential of the test compound on each CYP enzyme subtype.

A further assay addresses Cytochrome P450 2C9 (Homo sapiens, UniProt P11712). As for the experimental part:
as §1

Another assay concerns the target Cytochrome P450 2D6 (Homo sapiens, UniProt P10635). As for the experimental part:
as §1

The next assay concerns the target Cytochrome P450 3A4 (Homo sapiens, UniProt P08684). As for the experimental part: as §1
For a further assay, the target named is T1, Cytochrome P450 1A2 (Homo sapiens, UniProt P05177).
T1 sequence (P05177 whole entry): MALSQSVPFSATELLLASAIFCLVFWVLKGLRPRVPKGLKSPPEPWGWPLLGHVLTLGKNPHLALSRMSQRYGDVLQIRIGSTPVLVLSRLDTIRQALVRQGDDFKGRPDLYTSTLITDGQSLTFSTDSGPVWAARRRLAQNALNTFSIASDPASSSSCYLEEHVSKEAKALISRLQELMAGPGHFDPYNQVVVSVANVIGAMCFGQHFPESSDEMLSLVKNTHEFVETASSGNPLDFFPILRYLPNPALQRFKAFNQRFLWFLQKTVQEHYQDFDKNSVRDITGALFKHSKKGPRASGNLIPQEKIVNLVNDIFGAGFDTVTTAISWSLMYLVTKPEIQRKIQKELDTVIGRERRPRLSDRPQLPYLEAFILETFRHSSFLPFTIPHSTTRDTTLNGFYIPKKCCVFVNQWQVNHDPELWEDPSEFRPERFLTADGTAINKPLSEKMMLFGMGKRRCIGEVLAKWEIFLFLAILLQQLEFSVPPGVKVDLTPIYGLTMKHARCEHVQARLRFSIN
As for the experimental part: as §1

Chain of Cytochrome P450 3A4 (P08684 whole entry): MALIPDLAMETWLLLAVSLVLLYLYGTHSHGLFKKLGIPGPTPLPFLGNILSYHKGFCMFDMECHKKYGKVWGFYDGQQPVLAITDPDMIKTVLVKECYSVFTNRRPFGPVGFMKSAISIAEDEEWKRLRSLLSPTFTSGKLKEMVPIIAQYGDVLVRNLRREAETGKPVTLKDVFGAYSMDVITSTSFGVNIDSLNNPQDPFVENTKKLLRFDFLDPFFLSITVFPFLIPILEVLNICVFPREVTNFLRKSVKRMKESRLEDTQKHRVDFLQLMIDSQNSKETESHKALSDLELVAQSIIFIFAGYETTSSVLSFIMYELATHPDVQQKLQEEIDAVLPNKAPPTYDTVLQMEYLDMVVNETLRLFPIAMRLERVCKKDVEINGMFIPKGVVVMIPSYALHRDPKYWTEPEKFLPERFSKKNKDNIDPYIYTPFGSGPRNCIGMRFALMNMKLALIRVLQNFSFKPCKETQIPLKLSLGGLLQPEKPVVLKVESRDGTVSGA
Chain of Cytochrome P450 2C19 (P33261 whole entry): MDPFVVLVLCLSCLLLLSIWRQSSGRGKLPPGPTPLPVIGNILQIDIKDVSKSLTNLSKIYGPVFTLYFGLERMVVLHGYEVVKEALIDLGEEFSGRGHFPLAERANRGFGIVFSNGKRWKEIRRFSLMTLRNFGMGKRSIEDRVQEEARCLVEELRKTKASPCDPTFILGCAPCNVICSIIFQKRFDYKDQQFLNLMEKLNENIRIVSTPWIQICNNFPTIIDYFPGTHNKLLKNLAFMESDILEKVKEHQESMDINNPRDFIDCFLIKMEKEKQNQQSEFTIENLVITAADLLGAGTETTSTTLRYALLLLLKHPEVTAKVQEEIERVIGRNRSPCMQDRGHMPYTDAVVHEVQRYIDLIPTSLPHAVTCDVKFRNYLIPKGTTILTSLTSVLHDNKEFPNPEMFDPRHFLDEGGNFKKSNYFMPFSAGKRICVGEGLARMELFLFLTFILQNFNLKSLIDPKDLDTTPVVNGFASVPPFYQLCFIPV
Chain of Cytochrome P450 2D6 (P10635 whole entry): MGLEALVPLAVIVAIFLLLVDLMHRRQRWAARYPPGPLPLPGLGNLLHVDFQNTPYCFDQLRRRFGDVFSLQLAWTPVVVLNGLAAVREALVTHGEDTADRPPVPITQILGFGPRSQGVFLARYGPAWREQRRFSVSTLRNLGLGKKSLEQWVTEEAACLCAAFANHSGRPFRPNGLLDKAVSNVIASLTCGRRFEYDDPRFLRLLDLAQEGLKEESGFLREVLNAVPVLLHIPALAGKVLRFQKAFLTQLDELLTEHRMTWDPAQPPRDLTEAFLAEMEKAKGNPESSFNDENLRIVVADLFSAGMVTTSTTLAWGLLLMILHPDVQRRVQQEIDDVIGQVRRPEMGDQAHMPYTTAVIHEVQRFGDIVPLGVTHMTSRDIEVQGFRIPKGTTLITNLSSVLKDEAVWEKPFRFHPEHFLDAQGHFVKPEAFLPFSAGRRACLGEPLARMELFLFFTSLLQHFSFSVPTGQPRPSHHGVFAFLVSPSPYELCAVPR
Chain of Cytochrome P450 2C9 (P11712 whole entry): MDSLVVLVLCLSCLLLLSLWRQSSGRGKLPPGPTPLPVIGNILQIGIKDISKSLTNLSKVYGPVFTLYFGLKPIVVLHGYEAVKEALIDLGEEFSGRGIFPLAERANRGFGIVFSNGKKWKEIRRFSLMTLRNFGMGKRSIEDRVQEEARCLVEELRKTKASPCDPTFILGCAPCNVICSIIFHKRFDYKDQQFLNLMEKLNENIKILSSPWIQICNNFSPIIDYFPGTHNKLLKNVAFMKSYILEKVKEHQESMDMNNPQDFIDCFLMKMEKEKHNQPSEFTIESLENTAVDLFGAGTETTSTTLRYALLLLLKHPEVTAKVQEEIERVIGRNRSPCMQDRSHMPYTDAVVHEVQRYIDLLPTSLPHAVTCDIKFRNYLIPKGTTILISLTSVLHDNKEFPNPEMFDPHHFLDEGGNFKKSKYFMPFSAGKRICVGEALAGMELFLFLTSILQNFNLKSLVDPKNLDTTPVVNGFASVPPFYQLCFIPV

A word on the IC50: it is the concentration at which inhibition is half-maximal. A low value points to greater potency in that assay. Take `C[C@@H]1Cc2c([nH]c3ccccc23)[C@H](c2c(F)cc(N[C@H]3CCN(CCCF)C3)cc2F)N1CC(F)(F)F` [WO2021228210, Compound 4]: the IC50 at Cytochrome P450 2C19 is 19.1 µM; at Cytochrome P450 2C9, 15.6 µM; on Cytochrome P450 2D6, 13.8 µM; on Cytochrome P450 3A4 it was 12.8 µM; at Cytochrome P450 1A2 it was 15.6 µM.
